# Ends that are not written are not given here. * marks the point of attachment. Man3GlcNAc2 = CC(=O)N[C@@H]1[C@@H](O)[C@H](O[C@@H]2O[C@H](CO)[C@@H](O[C@@H]3O[C@H](CO[C@H]4O[C@H](CO)[C@@H](O)[C@H](O)[C@@H]4O)[C@@H](O)[C@H](O[C@H]4O[C@H](CO)[C@@H](O)[C@H](O)[C@@H]4O)[C@@H]3O)[C@H](O)[C@H]2NC(C)=O)[C@@H](CO)O[C@H]1*
# Experiments:
# BnAb CH01 [1] = assay: SPR (Biacore) binding of V1V2 antigens to BnAb CH01; details: FIG. 1C, antigen 200 μg/ml
# Protocol: (§1) FIGS. 1A-1E. Initial evaluation of synthetic V1V2 glycopeptide constructs. […] Surface plasmon reasonance (SPR) analysis of the interaction of V1V2 Man5GlcNAc2 (green), Man3GlcNAc2 (red), GlcNAc2 (blue), or aglycone (magenta) antigens with BnAbs PG9 (FIG. 1B), CH01 (FIG. 1C), or their respective umutated common ancestor (UCA) antibodies, PG9 UCA (FIG. 1D), and CH01-04 UCA (FIG. 1E). Concentration of antigens was 200 μg/ml for FIGS. […], and 100 μg/ml for FIGS. 1D and 1E, RU=response units
# (§2) Using chemical methods (see, for example, those referenced above), a set of homogeneous V1V2 glycopeptides bearing Man3GlcNAc2, Man5GlcNAc2, and GlcNAc2 N-glycans were synthesized de novo (FIG. 1A). […] Importantly, binding by the naked “aglycone” (FIGS. 1B,C) or the solitary protein-free Man3 and Man5 oligosaccharides (data not shown) was not observed.
# PGT128 [2] = details: protein-free glycan; cited from earlier work
# BnAb PG9 [3] = assay: SPR (Biacore) binding of V1V2 antigens to BnAb PG9; details: FIG. 1B, antigen 200 μg/ml
# Protocol: as §1, §2
# PGTs 125-128 and 130 = details: cited from earlier work
# CH58 UCA = assay: Reactivity of CH58 UCA toward V1V2 glycopeptides; assay type: binding; details: data not shown
# Text: (§3) This is the first antigen known to bind to the PG9 UCA. […] Thus, these two V1V2 peptide-glycans have selective reactivity toward the V1V2 BnAbs, and react poorly or not at all with the CH58 mature and UCA antibodies. Therefore, these V1V2 peptide-glycan immunogens are prime candidates for selective induction of V1V2 BnAb lineages that are normally sub-dominant with infrequent UCAs.
# CH01-04 UCA = assay: SPR binding of V1V2 antigens to CH01 UCA; details: FIG. 1E, antigen 100 μg/ml
# Protocol: as §1, §3
# RV144 mAb CH58 = assay: Reactivity of RV144 mAb CH58 toward V1V2 glycopeptides; assay type: binding; details: data not shown
# Text: as §3
# PG9 UCA = assay: SPR binding of V1V2 antigens to PG9 UCA; details: FIG. 1D, antigen 100 μg/ml
# Protocol: as §1, §3
# BnAb CH01 [4] = details: from previous work; cited from earlier work
# BnAb PG9 [5] = details: from previous work; cited from earlier work
# [6] = tested on: V3 loop non-neutralizing mAb 19b; assay: SPR binding to captured V3 loop non-neutralizing mAb 19b; details: FIG. 12 and FIG. 13D
# Text: (§4) Both PGT128 and PGT125 are dependent on Man9 glycans on position N332 and N301 (Pejchal et al., 2011), with N332 being the primary glycan.
# (§5) Binding of V3 Bnab to Man9 glycan.
# V1V2 mAb PGT145 = assay: Binding to V1V2 mAb PGT145; details: FIG. 13D
# Text: (§6) FIG. 13A-D show binding of PGT mAbs to synthetic Man9GlcNAc2 glycan. Binding of V3 Bnab to Man9 glycan. […] Thus, the binding of Man9GlcnAc2 glycan was detected only for V3-glycan dependent PGT BNAbs.
# PGT128 [7] = assay: SPR binding to captured mAb PGT128; details: FIG. 13A
# Text: as §4, §5
# 2G12 = assay: Binding to mAb 2G12; details: FIG. 13C
# Text: as §6
# FIGS. 11-13 depict various experimental data showing that synthetic glycopeptides, such as for example the peptide of FIG. 1, can show differential binding to bnAbs vs non-neutralizing antibodies. […] Both 2G12 mAb and 2G12 UCA bound well to Man5 V1V2 dimer, indicating recognition of the glycan cluster on a V2 backbone.
# PGT125 = assay: SPR binding to captured mAb PGT125; details: FIG. 13B
# Text: as §4, §5
compound,measurement,setting,value
"CC(=O)N[C@H]1[C@H](O[C@H]2[C@H](O)[C@@H](NC(C)=O)C(O)O[C@@H]2CO)O[C@H](CO)[C@@H](O[C@@H]2O[C@H](CO[C@H]3O[C@H](CO)[C@@H](O)[C@H](O)[C@@H]3O)[C@@H](O)[C@H](O[C@H]3O[C@H](CO)[C@@H](O)[C@H](O)[C@@H]3O)[C@@H]2O)[C@@H]1O (stereo partly drawn) [Man3 oligosaccharide, Man3GlcNAc2]",binding to BnAb CH01,BnAb CH01 [1],not observed
same,binding of PGT128 on glycan arrays,PGT128 [2],not observed
same,binding to BnAb PG9,BnAb PG9 [3],not observed
"CC(=O)N[C@@H]1[C@@H](O)[C@H](O[C@@H]2O[C@H](CO)[C@@H](O[C@H]3O[C@H](CO[C@H]4O[C@H](CO[C@H]5O[C@H](CO)[C@@H](O)[C@H](O)[C@@H]5O[C@H]5O[C@H](CO)[C@@H](O)[C@H](O)[C@@H]5O)[C@@H](O)[C@H](O[C@H]5O[C@H](CO)[C@@H](O)[C@H](O)[C@@H]5O)[C@@H]4O)[C@@H](O)[C@H](O[C@H]4O[C@H](CO)[C@@H](O)[C@H](O)[C@@H]4O[C@H]4O[C@H](CO)[C@@H](O)[C@H](O)[C@@H]4O[C@H]4O[C@H](CO)[C@@H](O)[C@H](O)[C@@H]4O)[C@@H]3O)[C@H](O)[C@H]2NC(C)=O)[C@@H](CO)O[C@H]1O [Man8, reference compound]",binding of PGTs 125-128 and 130 on glycan arrays,PGTs 125-128 and 130,showed binding
Man5GlcNAc2 [Man5 oligosaccharide],binding to BnAb CH01,BnAb CH01 [1],not observed
same,binding to BnAb PG9,BnAb PG9 [3],not observed
Man5 construct: V1V2 glycopeptide (SEQ ID NO: 9) bearing two N-linked Man5GlcNAc2 at N160 and N156 (ITDEVRN(Man5GlcNAc2)CSFN(Man5GlcNAc2)MTTELRDKKQKVHALFYKLDIVPI),binding to BnAb CH01,BnAb CH01 [1],bind
same,reactivity of CH58 UCA,CH58 UCA,almost no affinity
same,affinity for CH01 UCA,CH01-04 UCA,to a lesser extent
same,reactivity of mAb CH58,RV144 mAb CH58,almost no affinity
same,binding to BnAb PG9,BnAb PG9 [3],bind
"Man3 construct: V1V2 glycopeptide (SEQ ID NO: 9, AE.CM244/A244) bearing two N-linked Man3GlcNAc2 at N160 and N156 (ITDEVRN(Man3GlcNAc2)CSFN(Man3GlcNAc2)MTTELRDKKQKVHALFYKLDIVPI)",binding to BnAb CH01,BnAb CH01 [1],bind
same,affinity for PG9 UCA,PG9 UCA,significant affinity
same,reactivity of CH58 UCA,CH58 UCA,only weak reactivity
same,affinity for CH01 UCA,CH01-04 UCA,significant affinity
same,reactivity of mAb CH58,RV144 mAb CH58,only weak reactivity
same,binding to BnAb PG9,BnAb PG9 [3],bind
aglycone: V1V2 peptide of SEQ ID NO: 9 with zero glycans (ITDEVRNCSFNMTTELRDKKQKVHALFYKLDIVPI),binding to BnAb CH01,BnAb CH01 [1],not observed
same,binding to CH01,BnAb CH01 [4],did not show binding
same,binding to BnAb PG9,BnAb PG9 [3],not observed
same,binding to PG9,BnAb PG9 [5],did not show binding
"CC(=O)N[C@H]1[C@H](O[C@H]2[C@H](O)[C@@H](NC(C)=O)C(O)O[C@@H]2CO)O[C@H](CO)[C@@H](O[C@@H]2O[C@H](CO[C@H]3O[C@H](CO[C@H]4O[C@H](CO)[C@@H](O)[C@H](O)[C@@H]4O[C@H]4O[C@H](CO)[C@@H](O)[C@H](O)[C@@H]4O)[C@@H](O)[C@H](O[C@H]4O[C@H](CO)[C@@H](O)[C@H](O)[C@@H]4O[C@H]4O[C@H](CO)[C@@H](O)[C@H](O)[C@@H]4O)[C@@H]3O)[C@@H](O)[C@H](O[C@H]3O[C@H](CO)[C@@H](O)[C@H](O)[C@@H]3O[C@H]3O[C@H](CO)[C@@H](O)[C@H](O)[C@@H]3O[C@H]3O[C@H](CO)[C@@H](O)[C@H](O)[C@@H]3O)[C@@H]2O)[C@@H]1O (stereo partly drawn) [Man9 glycan, Man9GlcNAc2]",binding of PGTs 125-128 and 130 on glycan arrays,PGTs 125-128 and 130,showed binding
same,binding to non-neutralizing V3 mAb 19b,[6],no binding
same,binding to V1V2 mAb PGT145,V1V2 mAb PGT145,no binding
same,affinity of PGT128 binding to free glycan,PGT128 [7],affinities in μM
same,2G12 binding to free glycan,2G12,only detected at the highest concentration
same,affinity of PGT125 binding to free glycan,PGT125,affinities in μM

# Source: patent US10286057B2, “Cyclic HIV-1 Env V3 glycopeptide immunogens” (DUKE UNIVERSITY, priority 2013, dated 2019)
